Measurements as given in publication PMC4128814, “A High Throughput Screen Identifies Potent and Selective Inhibitors to Human Epithelial 15-Lipoxygenase-2” (PLoS ONE, 2014).
Like-named read-outs stand apart in the source and are kept apart here.

Key:
15-LOX-2 [1] = target: T1, 15-LOX-2 (Homo sapiens, UniProt O15296); settings: control molecules known not to inhibit 15-LOX-2; cited from earlier work
T1 construct: His6 (N); made in house
T1 sequence (O15296 1-676): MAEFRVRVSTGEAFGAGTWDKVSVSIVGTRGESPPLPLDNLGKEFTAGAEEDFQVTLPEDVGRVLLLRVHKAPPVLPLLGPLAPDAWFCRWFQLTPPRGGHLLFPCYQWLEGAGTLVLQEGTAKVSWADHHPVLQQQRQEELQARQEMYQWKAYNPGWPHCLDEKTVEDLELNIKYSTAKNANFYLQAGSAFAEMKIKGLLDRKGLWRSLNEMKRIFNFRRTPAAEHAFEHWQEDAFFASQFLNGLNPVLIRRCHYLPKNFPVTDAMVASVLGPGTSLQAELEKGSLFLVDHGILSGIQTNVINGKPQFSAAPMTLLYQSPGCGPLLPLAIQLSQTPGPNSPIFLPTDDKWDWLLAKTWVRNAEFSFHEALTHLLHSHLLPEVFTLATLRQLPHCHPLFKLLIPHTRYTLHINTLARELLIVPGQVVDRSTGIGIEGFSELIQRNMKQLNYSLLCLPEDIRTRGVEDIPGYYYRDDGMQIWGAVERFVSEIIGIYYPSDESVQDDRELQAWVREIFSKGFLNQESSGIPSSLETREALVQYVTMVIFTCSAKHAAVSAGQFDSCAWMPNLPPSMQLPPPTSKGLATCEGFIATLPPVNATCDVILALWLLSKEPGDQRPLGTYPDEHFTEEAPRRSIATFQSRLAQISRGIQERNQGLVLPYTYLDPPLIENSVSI

15-LOX-2 [2] = target: T1, 15-LOX-2; assay: Lipoxygenase UV-Vis assay, 15-LOX-2; format: biochemical; settings: for inhibition at 25 µM: read-out: % Inhibition at 25 μM; for potency relative to parent compound: 15-LOX-2
Protocol: The reactions were initiated by adding 200 nM 15-LOX-2, 30 nM 12-LOX, 40 nM 15-LOX-1, or approximately 100–300 nM (5–10 µL) of 5-LOX crude extract to a cuvette with 2 mL reaction buffer, constantly stirred using a magnetic stir bar at room temperature (22°C). Reaction buffers used for various LOX isozymes were as follows: 25 mM HEPES (pH 7.3), 0.3 mM CaCl2, 0.1 mM EDTA, 0.2 mM ATP, 0.01% Triton X-100, 10 µM AA for the crude, ammonium sulfate precipitated 5-LOX; and 25 mM HEPES (pH 7.5), 0.01% Triton X-100, 10 µM AA for 15-LOX-2, 15-LOX-1, and 12-LOX. The substrate concentration was quantitatively determined by allowing the enzymatic reaction to go to completion in the presence of 15-LOX-2. […] The data were then plotted against inhibitor concentration, followed by a hyperbolic saturation curve fit (assuming total enzyme concentration [E]≪IC50). […] All inhibitors were stored at −20°C in DMSO. NDGA was utilized as positive control for the selectivity assays for the various LOX isozymes.
Once the two lead compounds were identified, a limited series of related compounds were identified and screened to investigate structure/activity relationships (Figure 3). […] We are currently exploring this line of inquiry.

[3] = 25 µM inhibitor, 15-LOX-2, 10 µM AA

| Structure (SMILES) | inhibition at 25 µM (15-LOX-2 [2]; [3]) [%] | IC50 (15-LOX-2 [2]; read-out: 15-LOX-2 IC50) [µM] | other results |
| --- | --- | --- | --- |
| CC(=O)NC(c1cccs1)c1cc(Br)c2cccnc2c1O (stereo not shown) [ML127] |  |  | IC50 (15-LOX-2 [1]): > 100 µM |
| c1cncc(-c2nnc(C3CCCCC3)o2)c1 [MLS000033229] | 4 | > 100 |  |
| c1ccc(CSc2ncn(-c3ccccc3)n2)cc1 [MLS000108825] | 56 | 6.4 |  |
| CC(=O)Nc1ccc(C(=O)CSc2ncn(-c3ccccc3)n2)cc1 [MLS000108839] | 0 | > 100 |  |
| Clc1ccc(-c2nnc(CCc3ccccc3)o2)c(Cl)c1 [MLS000325223] | 4 | > 100 |  |
| O=[N+]([O-])c1cc(-c2nnc(C34CC5CC(CC(C5)C3)C4)o2)cc([N+](=O)[O-])c1 [MLS000544312] |  |  | IC50 (15-LOX-2 [2]): > 100 µM; inhibition at 25 µM (15-LOX-2 [2]): 0% |
| Clc1ccc(CSc2ncn(-c3ccccc3)n2)cc1 [MLS000550104] | 94 | 0.74 | potency relative to parent compound (15-LOX-2 [2]): approximately 4 fold |
| Clc1ccccc1CSc1ncn(-c2ccccc2)n1 [MLS000550113] | 53 | 9 |  |
| CCC1CCC(c2nnc(-c3ccc(Br)cc3)o2)CC1 (stereo not shown) [MLS000578382] | 28 | > 50 |  |
| O=[N+]([O-])c1cccc(-c2nnc(C34CC5CC(CC(C5)C3)C4)o2)c1 [MLS000585389] | 14 | > 100 |  |
| Cc1ccc(NC(=O)CSc2ncn(-c3ccccc3)n2)cc1C [MLS000594570] | 0 | > 100 |  |
| Clc1cccc(CSc2ncn(-c3ccccc3)n2)c1 [MLS000594591] | 65 | 5.4 |  |
| CCC1CCC(c2nnc(-c3ccc([N+](=O)[O-])cc3)o2)CC1 (stereo not shown) [MLS000723362] | 5 | > 100 |  |
| CCCc1nnc(-c2ccc(OC)cc2)o1 [MLS000756111] | 0 | > 100 |  |
| Clc1ccc(-c2nnc(C3CC3)o2)cc1 [MLS000859524] | 4 | > 100 |  |
| O=C(c1nnc(-c2ccc(Cl)cc2)o1)C1CCCC1 [MLS001007221] | 66 | 1.1 | potency relative to parent compound (15-LOX-2 [2]): comparable activity |
| O=C(CCc1nnc(-c2ccccc2)o1)c1ccc(Cl)cc1 [MLS001019001] | 6 | > 100 |  |
| O=C(c1nnc(-c2ccccc2)o1)C1CC1 [MLS001033918] | 3 | > 100 |  |
